Results as given in patent publication US5594009A, “Fused pyrrolocarbazoles” (priority 1995, dated 1997).
Like-named read-outs stand apart in the source and are kept apart here.

Assays:
protein kinase C = experiment: PKC Activity Inhibition Assay; type: biochemical
Protocol: Fused pyrrolocarbazoles inhibited the activity of protein kinase C (Table VI). The protein kinase C assay has been disclosed (Murakata et al., U.S. Pat. No. 4,923,986; Kikkawa et al., J. Biol. Chem. 257:13341-13348 (1982)). The assay was performed with several concentrations of fused pyrrolocarbazoles. The concentration at which protein kinase C was 50% inhibited (IC50) was determined.

[1] = tested on: NT-3 induced ChAT activity of rat basal forebrain cultures; experiment: Enhancement of Neurotrophin (NT-3) Activity Assay, ChAT activity in basal forebrain cultures; type: cell-based; conditions: for ChAT activity in the absence of NT-3: compound added alone to basal forebrain neurons, no NT-3; for ChAT activity in the presence of NT-3: with 100 ng/ml NT-3
Protocol: Fused pyrrolocarbazoles were tested for the ability to enhance the activity of the neurotrophin NT-3 in basal forebrain cultures. ChAT activity was assayed as a measure of cholinergic neuron function and survival. The concentration of NT-3 (100 ng/ml) used in these experiments increased ChAT activity over control cultures (untreated with NT-3 or a fused pyrrolocarbazole) by 140%.
Methods. Basal forebrain cultures were prepared from embryonic rats (embryonic day 17) and dissociated with the neutral protease Dispase™. Cells were plated at a density of 4×10^5 cells/cm^2 on poly-1-ornithine coated plastic tissue culture plates in a mixture of DMEM and F12 media (50/50 v/v GIBCO) supplemented with 5% horse serum and 0.5% fetal bovine serum. Cells were incubated at 37° C. in a humidified atmosphere of 5% CO2 /95% air for 5 days. ChAT activity was measured as described in Example III(A)(1).
Recombinant rat NT-3 was produced by using a recombinant baculovirus expression vector under the control of the polyhedron virus promoter (Fraser, In Vitro Cell. and Dev. Biol. 25:225-235 (1989)). The plasmid pXM-NT3 (Hallbook et al., Neuron 6:845-858 (1991), which contained the rat NT-3 cDNA clone, was provided by Dr. Ira Black (University of Medicine and Dentistry of New Jersey, Piscataway, N.J.). NT-3 cDNA was subcloned into the transfer vector pVL1392 (In Vitrogen Corp., San Diego, Calif.) for recombinant virus production. Recombinant baculovirus was produced as described in Meyer et al. (Meyer at al., J. Neurochem 62:825-833 (1994)).

[2] = tested on: choline acetyltransferase (ChAT) activity in dissociated rat embryonic spinal cord culture; experiment: Spinal Cord ChAT Activity Assay; type: cell-based; conditions: ChAT measured after 48 hours
chick DRG neurons = experiment: DRG Neuron Survival Assay (calcein AM); type: cell-based; conditions: 48 hours; for viability at 0.1 µM / viability at 0.25 µM / viability at 0.5 µM: Gallus gallus, DRG neuron, read-out: Neuronal Survival (% of Control); for viability at 0.25 µM: 250 nM; for viability at 0.5 µM: 500 nM
Protocol: Fused pyrrolocarbazoles promoted dorsal root ganglion (DRG) neuronal survival in cultures of chick DRG neurons. Cell survival was measured by uptake of calcein AM, an analog of the viable dye, fluorescein diacetate. Calcein is taken up by viable cells and cleaved intracellularly to fluorescent salts which are retained by intact membranes of viable cells. Microscopic counts of viable neurons correlate directly with relative fluorescence values obtained with the fluorimetric viability assay. This method thus provides a reliable and quantitive measurement of cell survival in the total cell population of a given culture (Bozyczko-Coyne et al., J. Neur. Meth. 50:205-216, 1993).
Methods: Dorsal root ganglia were dissected from embryonic age day 9 chick embryos and dissociated cells prepared by subsequent Dispase (neutral protease, Collaborative Research) dissociation. Neurons were seeded at low density (3×10^4 cells/cm^2) into 96 well poly-L-ornithine and laminin coated plates. Cells were cultured for 48 hours in serum-free N2 medium (Bottenstein and Sato, 1979) at 37° C. in a humidified atmosphere, 5% CO2 /95% air. Cell survival was assessed at 48 hours using the viable fluorimetric assay described above.

trkA tyrosine kinase = trkA tyrosine kinase (Homo sapiens, UniProt P04629); experiment: trkA Tyrosine Kinase Activity Inhibition Assay (ELISA); type: biochemical; conditions: 16 μM ATP, 37° C., 15 min; read-out: INHIBITION OF trkA KINASE IC50
Protocol: These compounds were then tested for the ability to inhibit substrate phosphorylation by the trkA tyrosine kinase.
Plates were washed three times with TBST, followed by two washes with TBS (TBST sans Tween-20). Fused pyrrolocarbazoles were then added at various concentrations to a reaction mixture (50 mM HEPES, pH 7.4, 5 mM MnCl2, 5 mM MgCl2, 140 mM NaCl, 16 μM ATP, and 15 ng trkA in a total volume of 1001 μL.). As a negative control, 100 mM EDTA was included in the reaction solution. The plates were then incubated at 37° C. for 15 min. The detection antibody, monoclonal anti-phosphotyrosine antibody (UBI), was added at a dilution of 1:2000 in TBST, and incubated for 1 hour at 37° C. Plates were then washed three times with TBST, followed by a 1 hour incubation at 37° C. with alkaline phosphatase-labeled goat anti-mouse IgG (1:2000 in TBST (Bio-Rad)). After washing three times with TBST followed by two washes with TBS, a colored product was produced by using NADPH as substrate for alkaline phosphatase, and the coupled reactions of diaphorase and alcohol dehydrogenase (GIBCO-BRL ELISA amplification system). The colored product was read at 490 nm in a microplate reader (Biotek).

[3] = tested on: ChAT activity of basal forebrain cultures; experiment: Basal Forebrain ChAT Activity Assay; type: cell-based, rat; conditions: for activity at 0.25 µM: 250 nM
Protocol: Fused pyrrolocarbazoles were tested for the ability to increase ChAT activity of basal forebrain cultures.
Methods: The basal forebrain was dissected from rat embryos (day 17 or 18 embryos) and the cells were dissociated with a neutral protease (Dispase™, Collaborative Research). Neurons were plated at a density of 5×10^4 cells/well (1.5×10^5 cells/cm^2) in poly-1-ornithine and laminin coated plates. Cells were cultured in serum-free N2 medium containing 0.05% BSA at 37° C. in a humidified atmosphere, 5% CO2 /95% air. ChAT activity was assessed 5 days after plating by using the ChAT assay as described in Example III(A)(1).

AT-2 cells = experiment: Inhibition of Growth of Prostate Cancer Cell Line (MTS assay); type: cell-based; conditions: 72 h, read-out: AT-2 cell growth IC50
Protocol: AT-2 cells are a prostate cancer cell sub-line derived from the Dunning H tumor, graciously provided to us by Dr. John Isaacs (John Hopkins, M. D.). Unlike the Dunning H tumor cells, AT-2 cells can be grown in vitro.
Methods: At-2 cells ([…]) were plated on tissue culture plastic in 96-well plates in the presence of RPMI-1640 medium containing 10% fetal calf serum, 250 nM dexamethasone, 2 mM glutamine, 1 mM sodium pyruvate, and penicillin/streptomycin antibiotics. The next day, compounds were added at 4 concentrations (10, 1, 0.1, 0.01 μM) to determine the approximate IC50 range. Cultures were assayed 3 days later for cell number using the MTS [(3-(4,5-dimethylthiazol-2-yl)-5-(3-carboxymethoxyphenyl)-2-(4-sulfophenyl)-2H-tetrazolium, inner salt)] assay. The MTS assay (purchased as a kit from Promega) measures the formation of an aqueous soluble formazan (detected by a plate reader at 490nm) produced by the bioreduction of a tetrazolium compound (MTS) in metabolically active cells via mitochondrial succinate dehydrogenase. After determining linearity of the substrate incubation time over a range of cell plating densities, the amount of product measured is directly proportional to cell number. MTS (333 ug/ml) and 25 μM phenazine methosulfate are mixed and added directly to the culture medium, and incubated at 37° C. in the 5% CO2 /95% air incubator for 0.5-4 h. Absorbance of the product at 490 nm is read on the BIO-TEK plate reader. Background values were obtained from wells containing culture medium with substrate solution, but no cells. In addition, values were also obtained from wells containing cells plated at day 0 and assayed on the day compound was added (day 1) in order to determine the number of cells at the time compound was added. After the initial dose-finding experiment was completed, subsequent experiments were set up so that there were 3 or more concentrations near the predicted IC50.

[4] = tested on: lumbar motoneurons of chick embryos; experiment: Inhibition of Motoneuron Death In Ovo; type: in vivo; conditions: for % of motoneurons rescued versus control / Number of motoneurons mean ± SD: E6-E9; for Number of motoneurons mean ± SD: one side of spinal cord
Protocol: The samples (50 ul) were applied to the vascularized chorioallantoic membrane through a window in the egg shell as previously described (Oppenheim et al., 1988). Embryos were sacrificed on E10 and spinal cords were removed, fixed in Carnoy's solution (10% acetic acid, 60% ethanol, 30% chloroform), embedded in paraffin, sectioned at 8 um, and stained with thionin as described previously (Oppenheim et al., 1988). Motoneurons (identified by morphology and position) were counted by an individual blind to the treatment conditions in every tenth section according to previously established criteria (Oppenheim et al., 1982, Oppenheim, 1986).

[5] = Rattus norvegicus, 120 h, read-out: ChAT Activity (% of Control)

Sequence of trkA tyrosine kinase (P04629 33-796): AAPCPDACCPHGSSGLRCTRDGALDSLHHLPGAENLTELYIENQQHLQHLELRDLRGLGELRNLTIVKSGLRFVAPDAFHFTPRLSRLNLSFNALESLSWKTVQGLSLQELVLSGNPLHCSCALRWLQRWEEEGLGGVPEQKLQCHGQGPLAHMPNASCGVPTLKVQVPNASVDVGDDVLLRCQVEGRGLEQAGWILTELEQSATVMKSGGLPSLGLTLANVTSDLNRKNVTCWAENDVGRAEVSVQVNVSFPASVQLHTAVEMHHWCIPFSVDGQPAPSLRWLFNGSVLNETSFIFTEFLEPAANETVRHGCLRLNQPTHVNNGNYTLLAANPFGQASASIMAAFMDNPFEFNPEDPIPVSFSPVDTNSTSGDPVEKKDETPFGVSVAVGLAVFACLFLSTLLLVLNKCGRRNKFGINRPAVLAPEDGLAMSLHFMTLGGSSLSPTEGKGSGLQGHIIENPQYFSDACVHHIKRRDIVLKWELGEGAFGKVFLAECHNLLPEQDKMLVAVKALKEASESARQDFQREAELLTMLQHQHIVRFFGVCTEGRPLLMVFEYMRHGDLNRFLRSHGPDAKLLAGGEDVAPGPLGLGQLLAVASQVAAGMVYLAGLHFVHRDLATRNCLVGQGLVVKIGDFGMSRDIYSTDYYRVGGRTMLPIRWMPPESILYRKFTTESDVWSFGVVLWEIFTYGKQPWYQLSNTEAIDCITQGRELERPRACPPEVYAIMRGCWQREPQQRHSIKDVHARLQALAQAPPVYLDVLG

O=C1NC(=O)c2c1c1c(c3[nH]c4ccc(Br)cc4c23)Cc2ccccc2-1 [Compound I-6, 3-Bromo-6H, 12H, 13H-indeno[2,3-c]pyrrolo[3,4-c]carbazole-5,7(5H, 7H),-dione]
IC50 (protein kinase C): 1000 nM | ChAT activity in the absence of NT-3 [1]: no effect on ChAT activity | ChAT activity in the presence of NT-3 [1]: enhanced ChAT activity | Spinal Cord ChAT Activity, % of Control, untreated cultures [2]: 209 % of Control

O=C1NCc2c1c1c(c3[nH]c4ccc(F)cc4c23)Cc2ccccc2-1 [Compound I-12, 3-Fluoro-5H, 6H, 12H, 13H-indeno[2,3-a]pyrrolo[3,4-c]carbazole-7(7H)one]
IC50 (protein kinase C): 85 nM | viability at 0.1 µM (chick DRG neurons; 100 nM): 126% | viability at 0.25 µM (chick DRG neurons): 165% | viability at 0.5 µM (chick DRG neurons): 178% | IC50 (trkA tyrosine kinase): 26.7 nM | activity at 0.1 µM ([3]; Rattus norvegicus, 120 h, 100 nM, read-out: ChAT Activity (% of Control)): 279% | activity at 0.25 µM [3, 5]: 389% | Spinal Cord ChAT Activity, % of Control, untreated cultures [2]: 173 % of Control

O=C1NC(=O)c2c1c1c(c3[nH]c4ccccc4c23)CCc2ccccc2-1 [Compound I-14, 12,13-Dihydro-6H, 14H-naphthyl[3,4-a]pyrrolo[3,4-c]carbazole-5,7(5H, 7H)dione]
IC50 (protein kinase C): 15 nM | IC50 (AT-2 cells): 3070 nM | Spinal Cord ChAT Activity, % of Control, untreated cultures [2]: 153 % of Control

O=C1NCc2c3c(c4[nH]c5ccccc5c4c21)CCc1ccccc1-3 [Compound I-16, 12,13-dihydro-6H, 7H, 14H-naphthyl[3,4-a]pyrrolo[3,4-c]carbazole-5(5H)one]
IC50 (protein kinase C): 35 nM | Spinal Cord ChAT Activity, % of Control, untreated cultures [2]: 142 % of Control

O=C1NCc2c1c1c(c3[nH]c4ccccc4c23)CCc2ccccc2-1 [Compound I-17, 12,13-Dihydro-5H, 6H, 14H-naphthy[3,4-a]pyrrolo[3,4-c]carbazole-7(7H)one]
IC50 (protein kinase C): 1000 nM | IC50 (trkA tyrosine kinase): 66 nM | Spinal Cord ChAT Activity, % of Control, untreated cultures [2]: 197 % of Control

O=C1NC(=O)c2c1c1c3ccccc3[nH]c1c1oc3ccccc3c21 [Compound I-21, 6H, 13H -Benzofuranyl[2,3-a]pyrrolo[3,4-c]carbazole-5,7(5H, 7H)dione]
IC50 (AT-2 cells; 3 days, MTS): > 10000 nM | Spinal Cord ChAT Activity, % of Control, untreated cultures [2]: 122 % of Control

O=C1NCc2c1c1c(c3[nH]c4ccc(F)cc4c23)CCc2ccccc2-1 [Compound I-22, 12,13-Dihydro-3-fluoro-5H, 6H, 14H-naphthyl[3,4-a]pyrrolo[3,4-c]carbazole-7(7H)one]
IC50 (protein kinase C): 250 nM | Spinal Cord ChAT Activity, % of Control, untreated cultures [2]: 143 % of Control

O=C1NCc2c3c(c4[nH]c5ccc(F)cc5c4c21)Cc1ccccc1-3 [Compound I-23, 3-Fluoro-6H, 7H, 12H, 13H -indeno[2,3-a]pyrrolo[3,4-c]carbazole-5(5H)one]
IC50 (protein kinase C): 60 nM | Neuronal Survival (% of Control) (chick DRG neurons; 100 nM): inactive | viability at 0.25 µM (chick DRG neurons): 128% | viability at 0.5 µM (chick DRG neurons): 135% | IC50 (trkA tyrosine kinase): 70.6 nM | Spinal Cord ChAT Activity, % of Control, untreated cultures [2]: 208 % of Control

C=CCn1c2ccccc2c2c3c(c4c(c21)Cc1ccccc1-4)C(=O)NC3 [Compound I-26, 13-Allyl-5H,6H,12H-indeno[2,3-a]pyrrolo[3,4-c]carbazole-7(7H)one]
IC50 (protein kinase C): 300 nM | Spinal Cord ChAT Activity, % of Control, untreated cultures [2]: 167 % of Control

O=C1NCc2c1c1c(c3[nH]c4ccc(CCc5ccccn5)cc4c23)Cc2ccccc2-1 [Compound I-34]
viability at 0.1 µM (chick DRG neurons; 100 nM): 159% | viability at 0.25 µM (chick DRG neurons): 203% | viability at 0.5 µM (chick DRG neurons): 207% | % of motoneurons rescued versus control ([4]; 0.015 ug/egg daily): 11% | Number of motoneurons mean ± SD ([4]; 0.015 ug/egg daily): 10480 ± 585 | % of motoneurons rescued versus control ([4]; 0.15 ug/egg daily): 7% | Number of motoneurons mean ± SD ([4]; 0.15 ug/egg daily): 10135 ± 354 | % of motoneurons rescued versus control ([4]; 0.3 ug/egg daily): 23% | Number of motoneurons mean ± SD ([4]; 0.3 ug/egg daily): 11593 ± 654 | % of motoneurons rescued versus control ([4]; 0.6 ug/egg daily): 27% | Number of motoneurons mean ± SD ([4]; 0.6 ug/egg daily): 11976 ± 1106 | increase in motoneuron survival in treated vs. control embryos, maximal effect ([4]; 0.6 ug/egg, vehicle-treated control): 27% | number of surviving lumbar motoneurons / naturally occurring motoneuron death (in words) ([4]; daily application to chorioallantoic membrane, E6 to E9): dose-dependent increase in the number of surviving lumbar motoneurons | dose at which the maximal effect was achieved ([4]; daily dose): 0.6 ug/egg | ChAT Activity (% of Control) ([3]; 100 nM): inactive | ChAT Activity (% of Control) ([3]; 500 nM): inactive | ChAT Activity (% of Control) ([3]; 1000 nM): inactive | activity at 0.25 µM [3, 5]: 192% | Spinal Cord ChAT Activity, % of Control, untreated cultures [2]: 254 % of Control

O=C1NC(=O)c2c1c1c(c3[nH]c4cc(Cl)ccc4c23)Cc2ccccc2-1 [Compound Ia-1, 2-Chloro-6H , 12H, 13H-indeno[2,3a]pyrrolo[3,4-c]carbazole-5,7(5H, 7H)-dione]
ChAT activity in the absence of NT-3 [1]: no effect on ChAT activity | ChAT activity in the presence of NT-3 [1]: enhanced ChAT activity | Spinal Cord ChAT Activity, % of Control, untreated cultures [2]: 139 % of Control

B1: NT-3: Recombinant rat NT-3 produced by using a recombinant baculovirus expression vector (protein, UniProt P18280 140-258, looked up)
Neurotrophin-3: YAEHKSHRGEYSVCDSESLWVTDKSSAIDIRGHQVTVLGEIKTGNSPVKQYFYETRCKEARPVKNGCRGIDDKHWNSQCKTSQTYVRALTSENNKLVGWRWIRIDTSCVCALSRKIGRT
modifications: baculovirus-expressed
notes: Recombinant rat NT-3 produced by using a recombinant baculovirus expression vector
increase of ChAT activity over control cultures ([1]; NT-3 100 ng/ml, control untreated with NT-3 or fused pyrrolocarbazole): 140%
